Values after ≈ are worked out from the molar mass of the structure shown. Values joined by “and” are separate entries in the source; they are usually repeats but may differ in a detail not shown here. Equal entries are not always repeated. Where two headings read alike, the source gives them in different places.
Key:
Assay type in all cases: cell-based
[1] = system: HIV-1 (IIIB); test: inhibition of HIV-1(IIIB) (WT) induced syncytium formation in CEM cells
Text: (§1) CEM cells were obtained from the American Tissue Cell Culture Collection (Rockville, Md.) . HIV-1 (IIIB) was originally obtained from the culture supernatant of persistently HIV-1-infected H9 cells and was provided by R. C. Gallo and M. Popovic (National Cancer Institute, National Institutes of Health, Bethesda, Md.).
(§2) CEM cells were suspended at ≈300,000 cells per ml of culture medium and infected with approximately 100 CCID50 (CCID50 being the 50% cell culture infective dose) of HIV-1(IIIB) (designated as "WT" in Table 3) or one of the HIV-1 RT mutant strains described above. Then 100 μl of the infected cell suspensions was added to 200 μl microtiter plate wells containing 100 μl of appropriate serial (5-fold) dilutions of the test compounds. The inhibitiory effect of the test compounds on HIV-1 induced syncytium formation in CEM cells was examined microscopically on day 4 post infection. The 50% effective concentration (EC50) was defined as the test compound concentration that inhibits syncytium formation in the HIV-1-infected cell cultures by 50%.

[2] = system: HIV-1/100-Ile; test: inhibition of syncytium formation in CEM cells, HIV-1 RT mutant 100-Ile; conditions: Human immunodeficiency virus 1, CCRF-CEM, 96 h, read-out: EC50 100-Ile
Text: as §1
(§3) The selection and characterization of the HIV-1 RT mutant strains were done as follows: HIV-1/100-Ile ("100-Ile") was selected for resistance against TIBO R82150 as described in Balzarini et al, Virology 192: 246-253 (1993); HIV-1/103-Asn ("103-Asn") was selected for resistance against TIBO R82913 as described in Balzarini et al, Virology 192: 246-253 (1993); HIV-1/106-Ala ("106-Ala") was selected for resistance against nevirapine as described in Balzarini et al, J. Virol. 67: 5353-5359 (1993); HIV-1/Lys-138 ("Lys-138") was selected for resistance against TSAO-m^3T as described in Balzarini et al, Virology 192: 246-253 (1993) and Balzarini et al, Proc. Nat. Acad. Sci. USA 90: 6952-6956 (1993); HIV-1/181-Cys ("181-Cys") was selected for resistance against pyridinone L-697,661 as described in Balzarini et al, Virology 192: 246-253 (1993); and HIV-1/188-His ("188-His") was selected for resistance against HEPT as described in Balzarini et al, Mol. Pharmocol. 44: 694-701 (1993). 188-His was then further converted to HIV-1/188-Leu ("188-Leu") upon further passage in cell culture in the absence of the HEPT. HIV-1/101-Glu ("101-Glu") and HIV-1/190-Glu ("190-Glu") were selected for resistance against the thiocarboxanilide derivative designated as UC38 as described in Balzarini et al, Antiviral Research 27: 219-236 (1995). HIV-1/184-Ile ("184-Ile") was selected for resistance against the combination of 3TC and TSAO-m^3 T as described in Balzarini et al, Molecular Pharm. 49: 882-890 (1996). HIV-1/184-Val ("184-Val") was selected for resistance against 3TC as described in Balzarini et al, Molecular Pharm. 49: 882-890 (1996).
as §2

[3] = system: HIV-1/101-Glu; test: inhibition of syncytium formation in CEM cells, HIV-1 RT mutant 101-Glu; conditions: Human immunodeficiency virus 1, CCRF-CEM, 96 h, read-out: EC50 101-Glu
Text: as §1, §3, §2

[4] = system: 103-Ala; test: inhibition of syncytium formation in CEM cells, HIV-1 RT mutant 103-Ala; conditions: Human immunodeficiency virus 1, CCRF-CEM, 96 h, read-out: EC50 103-Ala
[5] = system: 138-Lys; test: inhibition of syncytium formation in CEM cells, HIV-1 RT mutant 138-Lys; conditions: Human immunodeficiency virus 1, CCRF-CEM, 96 h, read-out: EC50 138-Lys
Text: as §1, §3, §2

[6] = system: HIV-1/181-Cys; test: inhibition of syncytium formation in CEM cells, HIV-1 RT mutant 181-Cys; conditions: Human immunodeficiency virus 1, CCRF-CEM, 96 h, read-out: EC50 181-Cys
Text: as §1, §3, §2

[7] = system: HIV-1/184-Ile; test: inhibition of syncytium formation in CEM cells, HIV-1 RT mutant 184-Ile; conditions: Human immunodeficiency virus 1, CCRF-CEM, 96 h, read-out: EC50 184-IIe
Text: as §1, §3, §2

[8] = system: HIV-1/184-Val; test: inhibition of syncytium formation in CEM cells, HIV-1 RT mutant 184-Val; conditions: Human immunodeficiency virus 1, CCRF-CEM, 96 h, read-out: EC50 184-Val
Text: as §1, §3, §2

[9] = system: HIV-1/188-His; test: inhibition of syncytium formation in CEM cells, HIV-1 RT mutant 188-His; conditions: Human immunodeficiency virus 1, CCRF-CEM, 96 h, read-out: EC50 188-His
Text: as §1, §3, §2

[10] = system: HIV-1/190-Glu; test: inhibition of syncytium formation in CEM cells, HIV-1 RT mutant 190-Glu; conditions: Human immunodeficiency virus 1, CCRF-CEM, 96 h, read-out: EC50 190-Glu
Text: as §1, §3, §2

[11] = system: HIV-1/106-Ala; test: inhibition of syncytium formation in CEM cells, HIV-1 RT mutant 106-Ala; conditions: Human immunodeficiency virus 1, CCRF-CEM, 96 h, read-out: EC50 106-Ala
Text: as §1, §3, §2

[12] = system: HIV-1/188-Leu; test: inhibition of syncytium formation in CEM cells, HIV-1 RT mutant 188-Leu; conditions: Human immunodeficiency virus 1, CCRF-CEM, 96 h, read-out: EC50 188-Leu
Text: as §1, §3, §2

[13] = Human immunodeficiency virus 1, IIIB, CCRF-CEM, 96 h, Table 2, day 4 post infection, replicate values, read-out: EC50, Activity Against HIV-1 (IIIB)
[14] = Human immunodeficiency virus 1, IIIB, CCRF-CEM, 96 h, Table 3, HIV-1(IIIB), day 4 post infection, read-out: EC50 WT
[15] = Table 2, day 4 post infection, replicate values, read-out: EC50, Activity Against HIV-1 (IIIB)

Compound	EC50 [1, 13] [nM]	EC50 [1, 14] [µg/mL]	EC50 [1, 15]	EC50 [2] [µg/mL]	EC50 [3] [µg/mL]	EC50 [4] [µg/mL]	EC50 [5] [µg/mL]	EC50 [6] [µg/mL]	EC50 [7] [µg/mL]	EC50 [8] [µg/mL]	EC50 [9] [µg/mL]	EC50 [10] [µg/mL]	EC50 [11] [µg/mL]	EC50 [12] [µg/mL]
Cc1occc1C(=S)Nc1ccc(Cl)c(COc2ccccc2Cl)c1 [Compound 6, N-3-((2-chlorophenoxy)methyl)-4-chlorophenyl-2-methyl-3-furancarbothioamide]	58.6	0.0067	104 nM	0.23	0.11	1.2 (≈ 3.06 µM)	0.025	0.09	0.047	0.018	0.053	> 2	–	–
Cc1occc1C(=S)Nc1ccc(Cl)c(COc2cccc(Cl)c2)c1 [Compound 7]	–	0.09	68.2 nM and 52.5 nM and 432 nM	0.65	2	≥ 2	0.33	0.44	0.4	0.1	0.95	≥ 10	–	–
Cc1ccccc1OCc1cc(NC(=S)c2ccoc2C)ccc1Cl [Compound 8]	107	0.022	–	0.33	1.5	2 (≈ 5.38 µM)	0.19	0.95	0.065	0.02	0.5	≥ 2	1	0.7
Cc1occc1C(=S)Nc1ccc(Cl)c(COc2ccc(F)cc2)c1 [Compound 11]	–	0.065	85.1 nM and 161 nM and 276 nM	0.95	≥ 2	> 2	0.7	0.14	0.16	0.045	> 2	≥ 2	1.1	≥ 2
CC(=O)OCc1ccccc1OCc1cc(NC(=S)c2ccoc2C)ccc1Cl [Compound 15]	–	0.49	–	> 2	> 2	> 2	> 2	> 2	1.2	0.5	> 2	≥ 2	> 2	> 2
Cc1occc1C(=S)Nc1ccc(Cl)c(COc2c(F)cccc2F)c1 [Compound 16]	28.6	0.0031	39.2 nM	0.08	0.069	0.6 (≈ 1.52 µM)	0.018	0.03	0.011	0.0036	0.52	> 2	0.03	0.95
Cc1occc1C(=S)Nc1ccc(Cl)c(COc2ccccc2F)c1 [Compound 18]	117	0.0053	111 nM	0.077	0.24	> 2	0.53	0.1	0.032	0.008	1.73	> 2	1.1	> 2
Cc1occc1C(=S)Nc1ccc(Cl)c(COc2ccccc2[N+](=O)[O-])c1 [Compound 19]	27.1	0.0023	39.3 nM	0.08	0.17	0.52 (≈ 1.29 µM)	0.0075	0.13	0.0045	0.0041	0.12	> 2	0.13	1.35
COc1ccccc1OCc1cc(NC(=S)c2ccoc2C)ccc1Cl [Compound 22]	160	0.011	209 nM	0.4	0.75	2.73 (≈ 7.04 µM)	0.075	0.41	0.025	0.018	0.85	> 2	1	> 2
Cc1occc1C(=S)Nc1ccc(Cl)c(COc2ccccc2CO)c1 [Compound 25]	–	0.55	3140 nM and 1090 nM and 1490 nM and 1150 nM and 1000 nM	> 2	> 2	> 2	> 2	> 2	1	0.25	> 2	> 2	> 2	> 2
Cc1occc1C(=S)Nc1ccc(Cl)c(COc2cccc([N+](=O)[O-])c2)c1 [Compound 27]	–	0.03	121 nM and 340 nM	0.7	0.55	> 2	0.23	0.5	0.11	0.4	> 2	> 2	1.57	> 2
Cc1occc1C(=S)Nc1ccc(Cl)c(COc2ccccc2C#N)c1 [Compound 30]	63.5	0.006	68.7 nM and 103 nM	0.33	0.63	> 2	0.042	0.65	0.03	0.021	0.35	> 2	0.7	0.85
COc1cccc(F)c1OCc1cc(NC(=S)c2ccoc2C)ccc1Cl [Compound 34]	–	0.0022	5.65 nM and 17.4 nM	0.16	0.12	0.85 (≈ 2.09 µM)	0.02	0.1	0.0087	0.005	0.5	> 2	0.1	0.53
Cc1ccc(Cl)c(OCc2cc(NC(=S)c3ccoc3C)ccc2Cl)c1 [Compound 37]	–	0.025	19.2 nM and 76.6 nM	2.33	1.4	> 2	0.33	> 2	0.14	0.09	0.33	> 2	> 2	0.62
Cc1occc1C(=S)Nc1ccc(Cl)c(COc2ccccc2Br)c1 [Compound 40]	–	0.02	35.3 nM and 46 nM and 16.8 nM	1.73	0.4	> 2	0.09	0.75	0.04	0.018	0.4	> 2	0.85	0.7

From patent publication US6143780A, “N-arylmethylthioanilide compounds useful for the inhibition of the replication of HIV” (Uniroyal Chemical Company, Inc., priority 1999, dated 2000)
